Measurements: ChEMBL document CHEMBL1201862, “PubChem BioAssay data set” (2004)
“And” between values parts separate entries of the source, which are not always exact repeats. Identical values can stand only once. The source made the active and inactive calls.

Legend:
[1] = test system: H4; assay: Luminescence Cell-Based Dose Response HTS to Identify Activators of 5'UTR Stem-Loop Driven Prion Protein mRNA Translation in H4 Neuroglioblastoma Cells. [Related pubchem assays: 1829 (Project Summary), 1814 (Primary HTS)]; assay type: functional; settings: Homo sapiens
[2] = Luminescence Cell-Based Dose Response HTS to Identify Activators of Luciferase Translation or Activity in H4 […] Cells. [Related pubchem assays: 1829 (Project Summary), 1814 (Primary HTS)]; assay type: functional
[3] = target: T1, Neuropeptide Y receptor type 1 (Homo sapiens, UniProt P25929); assay: NPY-Y1 receptor antagonist potency, dose response, cell-based (AID 1277); assay type: functional
T1 sequence (P25929 whole entry): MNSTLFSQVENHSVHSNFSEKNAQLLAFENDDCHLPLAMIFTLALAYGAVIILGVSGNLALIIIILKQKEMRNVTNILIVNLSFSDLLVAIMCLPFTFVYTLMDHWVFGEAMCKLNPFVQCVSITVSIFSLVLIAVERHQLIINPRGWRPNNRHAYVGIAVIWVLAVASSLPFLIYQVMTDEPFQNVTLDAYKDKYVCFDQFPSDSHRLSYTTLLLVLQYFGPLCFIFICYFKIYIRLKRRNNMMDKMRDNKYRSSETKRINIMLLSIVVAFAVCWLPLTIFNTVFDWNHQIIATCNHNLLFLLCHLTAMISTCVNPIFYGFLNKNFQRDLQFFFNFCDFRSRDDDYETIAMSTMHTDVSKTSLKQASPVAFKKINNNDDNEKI

[4] = target: T2, Neuropeptide Y receptor type 2 (Homo sapiens, UniProt P49146); assay: NPY-Y2 antagonist potency, selectivity check, dose response, counter-screen for NPY-Y1 antagonist project, cell-based (AID 1278); assay type: functional
T2 sequence (P49146 whole entry): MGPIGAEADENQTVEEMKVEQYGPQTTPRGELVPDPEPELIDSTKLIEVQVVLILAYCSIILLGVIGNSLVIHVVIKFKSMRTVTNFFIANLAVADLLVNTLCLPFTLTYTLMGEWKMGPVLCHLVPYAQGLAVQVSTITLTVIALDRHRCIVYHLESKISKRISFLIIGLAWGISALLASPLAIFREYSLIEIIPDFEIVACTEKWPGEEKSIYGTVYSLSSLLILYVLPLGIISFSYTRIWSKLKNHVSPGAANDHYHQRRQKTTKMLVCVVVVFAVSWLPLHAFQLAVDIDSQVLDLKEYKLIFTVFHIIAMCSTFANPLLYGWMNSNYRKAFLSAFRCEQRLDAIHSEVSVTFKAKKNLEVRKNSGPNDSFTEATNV

[5] = test system: Streptococcus sp. 'group A'; assay: growth inhibition of control SK(-) GAS strain, dose response, counter-screen for streptokinase expression inhibitor project, luminescence, kanamycin, BacTiterGlo, confirmation (AID 1900); assay type: functional, organism-based
[6] = target: T3, Streptokinase A (Streptococcus pyogenes serotype M1, UniProt P10520); assay: S. pyogenes streptokinase expression inhibitors, potency, dose response, plasminogen activation absorbance, OD405 (AID 1914); assay type: functional, Streptococcus pyogenes M1 GAS;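 also: secreted streptokinase activity via plasminogen activation per viability signal from cell pellet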
T3 sequence (P10520 whole entry): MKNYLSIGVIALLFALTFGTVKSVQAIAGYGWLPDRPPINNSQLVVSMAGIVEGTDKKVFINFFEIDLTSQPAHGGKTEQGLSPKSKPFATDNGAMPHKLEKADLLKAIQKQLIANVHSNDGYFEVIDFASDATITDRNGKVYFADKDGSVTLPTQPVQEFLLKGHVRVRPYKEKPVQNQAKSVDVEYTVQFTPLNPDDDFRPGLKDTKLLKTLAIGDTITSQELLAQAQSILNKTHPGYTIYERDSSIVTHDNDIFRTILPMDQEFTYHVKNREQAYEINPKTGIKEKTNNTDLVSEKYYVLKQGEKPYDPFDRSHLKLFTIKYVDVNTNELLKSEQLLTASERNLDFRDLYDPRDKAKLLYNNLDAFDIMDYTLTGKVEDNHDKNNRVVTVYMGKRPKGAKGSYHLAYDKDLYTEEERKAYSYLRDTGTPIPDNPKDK

[7] = test system: Streptococcus; assay: Group A Streptococcus viability loss, dose response, counter-screen for streptokinase expression inhibitor project, luminescence, BacTiterGlo (AID 1915); assay type: functional, organism-based;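 also: potency for reduction of bacterial viability or growth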
[8] = target: T1, Neuropeptide Y receptor type 1; assay type: functional
[9] = target: T2, Neuropeptide Y receptor type 2; assay type: functional, cell-based
[10] = HIV-1 Env-mediated cell fusion inhibitors, dose response, CCR5-tropic Env (AID 2279); assay type: functional
[11] = A Cell Based Secondary Assay To Explore Cytotoxicity of Compounds that Sensitize Mycobacterium Tuberculosis to Beta-Lactam Antibiotics.; assay type: functional
[12] = target: Nonstructural protein 1 (Influenza A virus, UniProt Q194T2); assay type: functional, Influenza A virus (A/California/07/2009(H1N1))
Sequence of Nonstructural protein 1 (Q194T2 whole entry): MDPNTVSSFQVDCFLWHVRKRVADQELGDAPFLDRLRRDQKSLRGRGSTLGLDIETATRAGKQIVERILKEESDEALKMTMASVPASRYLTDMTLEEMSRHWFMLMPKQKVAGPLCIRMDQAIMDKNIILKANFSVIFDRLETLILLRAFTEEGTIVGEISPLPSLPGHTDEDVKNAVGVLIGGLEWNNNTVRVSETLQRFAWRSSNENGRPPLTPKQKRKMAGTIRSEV

[13] = target: T4, Protein RecA (Mycobacterium tuberculosis, UniProt P9WHJ3); assay: Fluorescence Cell-Free Homogeneous Dose Retest to Identify Inhibitors of RecA-Intein Splicing Activity. [Related pubchem assays (depositor defined):AID2097, AID2223, AID489010, AID492950]; assay type: functional
T4 sequence (P9WHJ3 whole entry): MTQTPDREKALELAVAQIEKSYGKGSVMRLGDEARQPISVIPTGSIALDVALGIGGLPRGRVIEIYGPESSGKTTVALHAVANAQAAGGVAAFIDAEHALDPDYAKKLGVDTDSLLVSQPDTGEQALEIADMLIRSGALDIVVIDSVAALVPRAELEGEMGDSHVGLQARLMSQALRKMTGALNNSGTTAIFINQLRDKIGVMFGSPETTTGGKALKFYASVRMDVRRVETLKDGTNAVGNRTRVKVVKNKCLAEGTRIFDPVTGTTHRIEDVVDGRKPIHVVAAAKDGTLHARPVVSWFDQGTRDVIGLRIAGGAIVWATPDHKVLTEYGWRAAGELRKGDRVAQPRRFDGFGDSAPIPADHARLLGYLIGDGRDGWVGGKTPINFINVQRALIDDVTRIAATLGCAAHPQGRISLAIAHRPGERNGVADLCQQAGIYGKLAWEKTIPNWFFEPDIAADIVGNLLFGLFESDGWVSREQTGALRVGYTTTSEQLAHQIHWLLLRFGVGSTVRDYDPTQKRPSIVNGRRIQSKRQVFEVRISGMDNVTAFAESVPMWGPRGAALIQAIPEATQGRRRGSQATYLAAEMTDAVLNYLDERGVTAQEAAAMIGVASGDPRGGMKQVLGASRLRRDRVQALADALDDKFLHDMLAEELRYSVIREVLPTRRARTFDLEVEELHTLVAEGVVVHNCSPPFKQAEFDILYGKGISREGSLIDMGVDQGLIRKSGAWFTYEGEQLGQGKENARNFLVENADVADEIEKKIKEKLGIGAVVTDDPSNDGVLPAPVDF

[14] = target: G-protein coupled receptor 55 (Homo sapiens, UniProt Q9Y2T6); assay: GPR55 antagonists blocking LPI-driven arrestin recruitment, primary screen, imaging, U2OS, beta-arrestin-GFP, LPI agonist (AID 2013); assay type: functional;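 also: antagonist potency measured as reduced agonist-driven arrestin aggregation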
[15] = microbe, parasite or virus in culture; assay type: functional; settings: Mycobacterium tuberculosis
[16] = target: Eukaryotic translation initiation factor 4E (Mus musculus, UniProt P63073); assay: eIF4E–eIF4G protein interaction inhibitors, dose response, biochemical, TR-FRET (AID 855); assay type: functional;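 also: potency for disrupting eIF4E binding to eIF4GI seen as loss of FRET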
Sequence of Eukaryotic translation initiation factor 4E (P63073 whole entry): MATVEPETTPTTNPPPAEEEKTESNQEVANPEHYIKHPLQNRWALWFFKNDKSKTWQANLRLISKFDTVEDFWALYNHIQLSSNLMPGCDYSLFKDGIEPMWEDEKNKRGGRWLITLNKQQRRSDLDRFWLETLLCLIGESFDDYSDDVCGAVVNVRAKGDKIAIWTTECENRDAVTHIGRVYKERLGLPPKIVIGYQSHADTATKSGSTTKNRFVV

[17] = target: T5, Replicative DNA helicase DnaB (Mycobacterium tuberculosis, UniProt P9WMR3); assay: DnaB intein splicing inhibitors, dose response, biochemical, cell-free fluorescence (AID 449749); assay type: functional
T5 sequence (P9WMR3 whole entry): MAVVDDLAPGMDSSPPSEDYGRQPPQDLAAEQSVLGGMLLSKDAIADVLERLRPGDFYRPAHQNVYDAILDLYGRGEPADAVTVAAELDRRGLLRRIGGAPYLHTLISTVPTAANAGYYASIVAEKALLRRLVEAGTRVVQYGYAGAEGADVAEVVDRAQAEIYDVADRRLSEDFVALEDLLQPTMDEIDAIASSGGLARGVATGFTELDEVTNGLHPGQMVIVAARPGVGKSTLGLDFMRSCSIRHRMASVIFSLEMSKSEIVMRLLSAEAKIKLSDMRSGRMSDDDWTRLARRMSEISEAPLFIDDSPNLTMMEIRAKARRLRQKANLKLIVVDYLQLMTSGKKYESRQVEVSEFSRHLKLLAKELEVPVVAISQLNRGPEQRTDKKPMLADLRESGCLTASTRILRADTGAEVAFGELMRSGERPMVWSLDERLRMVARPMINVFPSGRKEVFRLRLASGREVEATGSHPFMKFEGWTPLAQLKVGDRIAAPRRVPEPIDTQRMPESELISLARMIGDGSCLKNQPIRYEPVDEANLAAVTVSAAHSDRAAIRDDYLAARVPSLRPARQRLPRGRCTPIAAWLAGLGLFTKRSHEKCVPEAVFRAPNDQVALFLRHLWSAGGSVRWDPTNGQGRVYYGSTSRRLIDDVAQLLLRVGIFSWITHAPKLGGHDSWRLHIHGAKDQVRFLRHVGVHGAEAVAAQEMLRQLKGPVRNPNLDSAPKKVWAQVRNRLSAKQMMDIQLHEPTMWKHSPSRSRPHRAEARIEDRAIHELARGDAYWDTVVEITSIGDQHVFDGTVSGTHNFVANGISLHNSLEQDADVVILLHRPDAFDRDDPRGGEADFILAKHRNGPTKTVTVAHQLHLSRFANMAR

[18] = target: T6, Voltage-gated N-type calcium channel alpha-1B subunit/Amyloid beta A4 precursor protein-binding family A member 1 (Homo sapiens, UniProt Q00975+Q02410); assay type: protein assay
T6 sequence (Q00975 whole entry): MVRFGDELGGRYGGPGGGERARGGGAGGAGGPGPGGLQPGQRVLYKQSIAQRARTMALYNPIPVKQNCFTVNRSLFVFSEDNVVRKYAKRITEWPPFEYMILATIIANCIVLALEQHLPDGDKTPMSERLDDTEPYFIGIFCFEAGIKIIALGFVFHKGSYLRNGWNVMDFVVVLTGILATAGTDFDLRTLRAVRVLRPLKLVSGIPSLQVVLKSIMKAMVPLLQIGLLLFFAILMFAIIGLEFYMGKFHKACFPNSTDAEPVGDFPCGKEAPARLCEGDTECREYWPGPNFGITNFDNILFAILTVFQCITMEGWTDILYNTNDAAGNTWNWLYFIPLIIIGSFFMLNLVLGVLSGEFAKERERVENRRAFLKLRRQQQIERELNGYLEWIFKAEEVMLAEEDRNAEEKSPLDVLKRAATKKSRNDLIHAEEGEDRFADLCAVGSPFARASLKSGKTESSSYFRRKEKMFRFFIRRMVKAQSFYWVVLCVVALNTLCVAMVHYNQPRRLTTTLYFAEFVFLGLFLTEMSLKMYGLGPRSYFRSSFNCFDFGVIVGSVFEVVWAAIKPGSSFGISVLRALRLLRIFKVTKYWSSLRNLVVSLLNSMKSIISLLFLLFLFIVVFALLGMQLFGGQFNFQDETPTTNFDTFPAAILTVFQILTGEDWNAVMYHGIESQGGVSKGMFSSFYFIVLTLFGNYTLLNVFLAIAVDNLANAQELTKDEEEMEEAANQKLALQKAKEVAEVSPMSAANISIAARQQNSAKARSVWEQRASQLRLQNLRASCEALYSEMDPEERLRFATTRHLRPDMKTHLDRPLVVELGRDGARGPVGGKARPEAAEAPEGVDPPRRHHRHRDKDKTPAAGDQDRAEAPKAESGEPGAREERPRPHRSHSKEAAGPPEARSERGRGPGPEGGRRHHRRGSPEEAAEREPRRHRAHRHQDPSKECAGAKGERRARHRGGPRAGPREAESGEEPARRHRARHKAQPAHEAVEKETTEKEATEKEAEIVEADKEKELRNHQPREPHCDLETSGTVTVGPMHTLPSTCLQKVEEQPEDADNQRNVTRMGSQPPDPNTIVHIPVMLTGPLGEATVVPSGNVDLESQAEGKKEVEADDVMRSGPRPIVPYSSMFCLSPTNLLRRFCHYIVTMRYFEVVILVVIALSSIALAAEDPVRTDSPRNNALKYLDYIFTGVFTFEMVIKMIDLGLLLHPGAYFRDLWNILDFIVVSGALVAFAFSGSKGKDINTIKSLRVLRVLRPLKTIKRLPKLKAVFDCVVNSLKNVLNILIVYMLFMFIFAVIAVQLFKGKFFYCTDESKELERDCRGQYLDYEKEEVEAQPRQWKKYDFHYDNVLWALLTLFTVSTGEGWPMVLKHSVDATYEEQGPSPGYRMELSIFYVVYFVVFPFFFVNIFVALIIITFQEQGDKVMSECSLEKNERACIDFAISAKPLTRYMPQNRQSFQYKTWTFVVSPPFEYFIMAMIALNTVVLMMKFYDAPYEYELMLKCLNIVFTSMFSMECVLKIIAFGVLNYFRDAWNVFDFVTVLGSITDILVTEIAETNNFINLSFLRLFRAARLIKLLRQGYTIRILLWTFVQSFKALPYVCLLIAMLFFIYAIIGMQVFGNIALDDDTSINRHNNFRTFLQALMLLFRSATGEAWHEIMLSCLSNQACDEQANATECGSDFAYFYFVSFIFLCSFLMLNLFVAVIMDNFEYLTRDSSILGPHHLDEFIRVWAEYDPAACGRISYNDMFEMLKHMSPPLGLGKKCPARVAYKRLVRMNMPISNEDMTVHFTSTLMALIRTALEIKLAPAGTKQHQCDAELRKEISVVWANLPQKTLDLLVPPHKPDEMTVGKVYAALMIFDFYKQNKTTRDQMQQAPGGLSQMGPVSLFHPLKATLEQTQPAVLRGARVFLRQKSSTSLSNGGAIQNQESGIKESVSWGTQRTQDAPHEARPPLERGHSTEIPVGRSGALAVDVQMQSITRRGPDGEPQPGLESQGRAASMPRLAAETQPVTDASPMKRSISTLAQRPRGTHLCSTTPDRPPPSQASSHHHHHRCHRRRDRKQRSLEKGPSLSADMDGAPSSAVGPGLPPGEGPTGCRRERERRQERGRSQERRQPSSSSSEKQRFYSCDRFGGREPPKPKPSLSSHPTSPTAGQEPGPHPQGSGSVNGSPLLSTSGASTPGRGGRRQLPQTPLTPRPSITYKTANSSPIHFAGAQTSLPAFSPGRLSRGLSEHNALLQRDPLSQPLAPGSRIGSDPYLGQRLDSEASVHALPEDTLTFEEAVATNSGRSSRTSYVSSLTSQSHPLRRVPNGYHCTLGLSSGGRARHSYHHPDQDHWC
T6 sequence (Q02410 whole entry): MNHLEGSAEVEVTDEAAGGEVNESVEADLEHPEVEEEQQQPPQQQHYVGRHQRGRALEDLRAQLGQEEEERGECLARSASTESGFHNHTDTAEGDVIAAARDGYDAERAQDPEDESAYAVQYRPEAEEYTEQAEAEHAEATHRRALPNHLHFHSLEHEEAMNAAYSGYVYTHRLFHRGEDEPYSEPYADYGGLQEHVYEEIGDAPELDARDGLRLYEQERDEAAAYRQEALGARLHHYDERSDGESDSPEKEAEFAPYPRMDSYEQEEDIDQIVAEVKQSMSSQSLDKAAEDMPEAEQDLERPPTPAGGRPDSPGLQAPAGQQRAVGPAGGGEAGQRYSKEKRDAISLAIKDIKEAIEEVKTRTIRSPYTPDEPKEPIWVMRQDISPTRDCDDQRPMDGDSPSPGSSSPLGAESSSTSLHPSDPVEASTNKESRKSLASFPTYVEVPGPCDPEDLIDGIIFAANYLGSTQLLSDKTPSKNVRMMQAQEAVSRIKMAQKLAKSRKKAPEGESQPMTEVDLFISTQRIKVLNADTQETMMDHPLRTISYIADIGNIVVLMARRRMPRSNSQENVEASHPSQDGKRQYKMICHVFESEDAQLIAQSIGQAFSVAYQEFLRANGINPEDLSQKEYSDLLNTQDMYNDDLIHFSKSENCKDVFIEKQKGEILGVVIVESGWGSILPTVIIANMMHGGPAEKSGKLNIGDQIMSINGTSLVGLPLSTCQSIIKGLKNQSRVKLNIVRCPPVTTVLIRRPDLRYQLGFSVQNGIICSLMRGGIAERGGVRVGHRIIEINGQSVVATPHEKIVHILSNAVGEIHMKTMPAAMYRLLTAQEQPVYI

[19] = target: Induced myeloid leukemia cell differentiation protein Mcl-1 (Homo sapiens, UniProt Q07820); assay type: functional
Sequence of Induced myeloid leukemia cell differentiation protein Mcl-1 (Q07820 whole entry): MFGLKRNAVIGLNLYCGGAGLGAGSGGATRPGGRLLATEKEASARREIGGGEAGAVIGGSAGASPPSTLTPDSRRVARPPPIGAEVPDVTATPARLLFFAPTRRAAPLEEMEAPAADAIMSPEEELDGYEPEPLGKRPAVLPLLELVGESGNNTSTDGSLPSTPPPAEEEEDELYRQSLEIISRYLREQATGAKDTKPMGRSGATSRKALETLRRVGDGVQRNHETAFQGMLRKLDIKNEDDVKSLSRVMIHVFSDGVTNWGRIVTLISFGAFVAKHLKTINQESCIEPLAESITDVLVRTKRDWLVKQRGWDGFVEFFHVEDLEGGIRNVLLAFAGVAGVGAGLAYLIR

[20] = target: T6, Voltage-gated N-type calcium channel alpha-1B subunit/Amyloid beta A4 precursor protein-binding family A member 1; assay type: protein assay; remark: listed apart in the source
[21] = target: T7, Beta-galactosidase (Escherichia coli, UniProt Q8VNN2); assay: beta-galactosidase enzyme inhibitors and activators, dose response, artefact control for CCR6 antagonist project, biochemical, E. coli enzyme, set 3 (AID 504712); assay type: functional
T7 sequence (Q8VNN2 whole entry): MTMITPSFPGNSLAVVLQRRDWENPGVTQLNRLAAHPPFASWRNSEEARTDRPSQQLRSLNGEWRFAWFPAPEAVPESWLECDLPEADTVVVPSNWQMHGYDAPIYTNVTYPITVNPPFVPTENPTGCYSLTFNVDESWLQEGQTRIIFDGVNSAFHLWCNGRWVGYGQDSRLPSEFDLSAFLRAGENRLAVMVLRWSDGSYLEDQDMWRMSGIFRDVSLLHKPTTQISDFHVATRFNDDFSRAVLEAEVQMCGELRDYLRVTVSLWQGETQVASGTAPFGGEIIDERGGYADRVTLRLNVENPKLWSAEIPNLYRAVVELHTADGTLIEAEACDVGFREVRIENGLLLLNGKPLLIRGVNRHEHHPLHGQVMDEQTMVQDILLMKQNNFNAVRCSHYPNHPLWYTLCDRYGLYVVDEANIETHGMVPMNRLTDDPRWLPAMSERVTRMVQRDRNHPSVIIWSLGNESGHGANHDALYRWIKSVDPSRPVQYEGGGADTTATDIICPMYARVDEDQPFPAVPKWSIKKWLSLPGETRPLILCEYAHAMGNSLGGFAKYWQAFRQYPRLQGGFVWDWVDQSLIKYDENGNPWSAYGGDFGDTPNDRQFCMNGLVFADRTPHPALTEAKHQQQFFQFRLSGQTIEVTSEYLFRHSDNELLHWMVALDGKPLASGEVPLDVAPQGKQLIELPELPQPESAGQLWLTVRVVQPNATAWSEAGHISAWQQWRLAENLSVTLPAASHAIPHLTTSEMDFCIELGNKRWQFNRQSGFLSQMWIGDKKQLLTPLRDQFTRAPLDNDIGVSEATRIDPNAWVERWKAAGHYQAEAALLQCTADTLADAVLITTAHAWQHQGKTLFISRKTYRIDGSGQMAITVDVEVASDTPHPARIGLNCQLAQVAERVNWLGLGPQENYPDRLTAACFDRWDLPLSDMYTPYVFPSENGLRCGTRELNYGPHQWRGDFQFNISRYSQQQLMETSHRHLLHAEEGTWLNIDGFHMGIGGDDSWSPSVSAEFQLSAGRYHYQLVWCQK

[22] = target: T8, Leucine aminopeptidase (Plasmodium falciparum 3D7, UniProt Q8IL11); assay: P. falciparum M17LAP inhibitors, primary screen, biochemical, fluorogenic H-Leu-NHMec substrate, 1536-well (AID 1619); assay type: functional
T8 sequence (Q8IL11 whole entry): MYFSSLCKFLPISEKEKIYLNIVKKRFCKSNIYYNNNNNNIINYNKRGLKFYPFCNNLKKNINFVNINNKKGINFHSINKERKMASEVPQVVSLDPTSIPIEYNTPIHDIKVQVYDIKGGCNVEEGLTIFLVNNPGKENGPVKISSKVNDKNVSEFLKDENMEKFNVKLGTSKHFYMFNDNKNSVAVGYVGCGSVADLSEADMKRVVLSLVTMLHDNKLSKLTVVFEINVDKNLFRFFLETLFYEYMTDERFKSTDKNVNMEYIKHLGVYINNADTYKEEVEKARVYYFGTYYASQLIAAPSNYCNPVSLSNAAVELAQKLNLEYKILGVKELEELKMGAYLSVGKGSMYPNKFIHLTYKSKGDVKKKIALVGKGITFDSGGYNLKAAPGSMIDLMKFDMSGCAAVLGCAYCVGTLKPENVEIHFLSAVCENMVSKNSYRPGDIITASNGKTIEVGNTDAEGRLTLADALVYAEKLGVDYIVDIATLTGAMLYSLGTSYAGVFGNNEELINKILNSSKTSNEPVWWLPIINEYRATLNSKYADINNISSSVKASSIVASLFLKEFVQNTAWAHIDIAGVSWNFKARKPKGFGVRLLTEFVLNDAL

[23] = enhancers of respiration in Yfh1-depleted yeast, dose response, Friedreich's ataxia, plus single-dose screen (AID 1465); assay type: functional;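 also: yeast depleted of Yfh1p frataxin homolog grown on glycerol needing respiration; WST-1 tetrazolium dye reduction as measure of cellular dehydrogenase metabolic activity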
[24] = target: T9, Type-1 angiotensin II receptor (Homo sapiens, UniProt P30556); assay: AT1 receptor antagonists, dose response, selectivity assay for APJ receptor antagonist project, cell-based, uHTS hits (AID 463214); assay type: functional;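 also: antagonist potency against angiotensin II stimulated AT1 response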
T9 sequence (P30556 whole entry): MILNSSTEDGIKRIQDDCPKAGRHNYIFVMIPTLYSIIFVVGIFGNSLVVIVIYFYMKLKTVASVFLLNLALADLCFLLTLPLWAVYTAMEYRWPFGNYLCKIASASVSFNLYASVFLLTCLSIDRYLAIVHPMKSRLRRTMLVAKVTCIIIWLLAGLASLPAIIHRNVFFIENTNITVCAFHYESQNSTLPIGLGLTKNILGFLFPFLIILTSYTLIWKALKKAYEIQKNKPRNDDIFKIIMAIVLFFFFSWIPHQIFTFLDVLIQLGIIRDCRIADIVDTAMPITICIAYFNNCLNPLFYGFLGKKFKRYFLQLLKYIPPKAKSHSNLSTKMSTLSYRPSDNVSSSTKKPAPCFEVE

[25] = target: T7, Beta-galactosidase; assay: PubChem AID 485352; assay type: functional

For `Clc1ccc(-c2csc(Nc3ccccc3)[n+]2Cc2ccco2)c(Cl)c1`, the EC50 [1] was 51.2 µM (active), the EC50 [2] was > 120 µM (not active) and the IC50 [3] was > 35 µM (not active). The IC50 [4] was > 35 µM (not active), the EC50 [5] was 12.3 µM (active) and the EC50 [6] was 2.27 µM (active). For the same molecule, the EC50 [7] was > 150 µM (not active).
With `Cc1ccccc1/C=C/c1nc2ccccc2c(=O)n1CCc1ccccc1` the IC50 [8] was 4.26 µM (active) and the IC50 [9] was 5.52 µM (active).
With `COc1cc([N+](=O)[O-])cc(/C=C2/SC(=S)N(Cc3ccccc3)C2=O)c1O` the IC50 [10] was 8.82 µM (active).
In the case of `OC1(c2ccccc2)CCN(Cc2ccccc2)C2CCCCC21` (centres undefined), the IC50 [8] is reported as 10.2 µM (not active) and the IC50 [9] is reported as 4.38 µM (active).
In the case of `CN(c1ccc(C(=O)Nc2ccccc2Sc2ccccc2)cc1)S(C)(=O)=O`, the CC50 [11] is reported as > 40 µM (active).
With `O=C(O)c1ccc(N2C(=O)/C(=C/c3ccc(-c4ccc([N+](=O)[O-])cc4)o3)C=C2c2ccccc2)cc1` the IC50 [12] was 6.04 µM (active), the EC50 [13] was > 380 µM (inactive) and the IC50 [14] was < 0.5 µM (active). The IC50 [10] was > 50 µM (active), the CC50 [15] was 15.8 µM (active) and the IC50 [16] was 9.86 µM (active) and 3.93 µM (active). The AC50 [17] was 56.7 µM (active), the IC50 [18] was 5.56 µM (active) and the IC50 [19] was 0.417 µM (active). The IC50 [20] was > 50 µM (inactive), the IC50 [21] was 33.8 µM (active) and the IC50 [22] was 21.4 µM (active).
For `Cc1ccc(N/N=C2/C(=O)Nn3c2nc(C)cc3=O)cc1`, the EC50 [23] was > 100 µM (active), the IC50 [24] was > 40 µM (not active) and the EC50 [25] was > 40 µM (inactive). The IC50 [22] was 86.1 µM (active).
